Measurements from ChEMBL document CHEMBL3603736, “3-Substituted pyrazoles and 4-substituted triazoles as inhibitors of human 15-lipoxygenase-1” (Bioorg Med Chem Lett, 2015).

Tests used:
[1] = molecular target: T1, Polyunsaturated fatty acid lipoxygenase ALOX15 (Homo sapiens, UniProt P16050); details: sf9
T1 sequence (P16050 whole entry): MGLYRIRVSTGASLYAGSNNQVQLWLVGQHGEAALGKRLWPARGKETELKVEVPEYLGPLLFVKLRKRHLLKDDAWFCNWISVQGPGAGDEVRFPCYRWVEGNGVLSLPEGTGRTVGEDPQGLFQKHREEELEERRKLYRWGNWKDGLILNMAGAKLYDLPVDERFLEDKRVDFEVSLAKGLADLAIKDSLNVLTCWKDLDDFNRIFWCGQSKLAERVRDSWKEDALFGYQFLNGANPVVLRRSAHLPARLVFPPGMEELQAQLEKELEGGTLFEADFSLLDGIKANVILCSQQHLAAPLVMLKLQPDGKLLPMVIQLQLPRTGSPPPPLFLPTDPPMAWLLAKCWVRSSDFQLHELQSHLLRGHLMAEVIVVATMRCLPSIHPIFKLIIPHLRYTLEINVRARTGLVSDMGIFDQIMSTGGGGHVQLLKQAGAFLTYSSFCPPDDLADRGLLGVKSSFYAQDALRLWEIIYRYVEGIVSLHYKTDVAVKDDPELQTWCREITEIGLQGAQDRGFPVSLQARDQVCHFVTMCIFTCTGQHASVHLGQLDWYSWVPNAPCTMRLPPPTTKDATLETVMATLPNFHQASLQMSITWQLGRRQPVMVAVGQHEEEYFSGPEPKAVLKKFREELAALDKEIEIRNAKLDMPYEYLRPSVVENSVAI
Description: (§1) Inhibition of human 15-LOX-1 expressed in Sf9 cells assessed as reduction in conversion of arachidonic acid to 15-HETE pre-incubated 5 min before arachidonic acid substrate addition by HPLC-UV spectroscopy

[2] = molecular target: T1, Polyunsaturated fatty acid lipoxygenase ALOX15
Description: (§2) Inhibition of 15-LOX-1 in human L1236 cells assessed as reduction in conversion of arachidonic acid to 15-HETE pre-incubated 5 min before arachidonic acid substrate addition by HPLC-UV spectroscopy

[3] = molecular target: T1, Polyunsaturated fatty acid lipoxygenase ALOX15; remark: listed apart in the source
Description: as §1

[4] = molecular target: T1, Polyunsaturated fatty acid lipoxygenase ALOX15; details: l1236
Description: as §2

## O=C(NCc1ccccc1)c1cc[nH]n1
[1]
  IC50: Not Active

## Nc1cc(C(=O)Nc2ccc(F)cc2Cl)n[nH]1
[2]
  IC50: 334 nM
[3]
  IC50: 5980 nM

## Cc1c(C(=O)Nc2ccc(F)cc2Cl)n[nH]c1[Si](C)(C)C
[2]
  IC50: 1330 nM
[3]
  IC50: 672 nM

## O=C(Nc1ccc(F)cc1Cl)c1n[nH]cc1-c1ccccc1
[4]
  IC50: Not Active

## CS(=O)(=O)Nc1cc(C(=O)Nc2ccc(F)cc2Cl)n[nH]1
[4]
  IC50: Not Active

## CS(=O)(=O)Nc1c[nH]nc1C(=O)Nc1ccc(F)cc1Cl
[4]
  IC50: Not Active

## O=C(Nc1ccc(F)cc1)c1cc[nH]n1
[2]
  IC50: 270 nM

## O=C(Nc1ccccc1Cl)c1cn[nH]n1
[2]
  IC50: 392 nM
[3]
  IC50: 6980 nM

## c1ccc2oc(-c3cc[nH]n3)nc2c1
[2]
  IC50: 638 nM
[3]
  IC50: 3270 nM

## Clc1ccc2nc(-c3n[nH]c(Cl)c3Cl)oc2c1
[2]
  IC50: 34 nM
[3]
  IC50: 2 nM

## O=C(Nc1ccc(F)cn1)c1cn[nH]n1
[2]
  IC50: 3110 nM
[3]
  IC50: 3970 nM
